PubChem BioAssay (NCI)
Where “and” joins values, the source holds several entries; their conditions need not be identical. Equal values may be shown once.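 Cells were grown in 96-well plates and exposed to each compound for 48 hours at five concentrations; endpoints were interpolated linearly between bracketing concentrations, or set to the highest concentration if not reached. The concentration for 50% growth inhibition is given as GI50. TGI marks complete inhibition of growth.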

How the values were obtained:
Test in all cases: NCI anticancer screen, dose series, 48 h
COLO 205 colon = tested on: COLO 205 colon
KM12 colon = tested on: KM12 colon
NCI-H460 lung = tested on: NCI-H460 lung
OVCAR-3 ovarian = tested on: OVCAR-3 ovarian
OVCAR-5 ovarian = tested on: OVCAR-5 ovarian
SF-268 CNS = tested on: SF-268 CNS
SK-MEL-2 melanoma = tested on: SK-MEL-2 melanoma
SR leukemia = tested on: SR leukemia
UO-31 renal = tested on: UO-31 renal
HCT-116 colon = tested on: HCT-116 colon

Row | Structure (SMILES) | TGI (COLO 205 colon) | TGI (KM12 colon) | TGI (NCI-H460 lung) | TGI (OVCAR-3 ovarian) | TGI (OVCAR-5 ovarian) | TGI (SF-268 CNS) | TGI (SK-MEL-2 melanoma) | TGI (SR leukemia) | TGI (UO-31 renal) | GI50 (COLO 205 colon) | GI50 (HCT-116 colon) | TGI (HCT-116 colon) | GI50 (KM12 colon) | GI50 (NCI-H460 lung) | GI50 (OVCAR-3 ovarian) | GI50 (OVCAR-5 ovarian) | GI50 (SF-268 CNS) | GI50 (SK-MEL-2 melanoma) | GI50 (UO-31 renal) | GI50 (SR leukemia)
1 | COc1ccc2c(=O)c3cc([N+](=O)[O-])ccc3n(C)c2c1 | > 100 µM | > 100 µM | > 100 µM | > 100 µM | > 100 µM | > 100 µM | > 100 µM | > 100 µM | > 100 µM |  |  |  |  |  |  |  |  |  |  | 
2 | CC[C@H](C)n1cc(C)c2c(C(=O)NCc3c(C)cc(C)[nH]c3=O)cc(-c3ccc(N4CCNCC4)nc3)cc21 | 18.6 µM and 8.85 µM | 24.2 µM and 23.6 µM | 24.7 µM and 26 µM | 27.4 µM and 28.2 µM | 30.5 µM and 29.9 µM | 29.8 µM and 27.8 µM | 32.9 µM and 29.9 µM |  | 29.6 µM and 27.3 µM | 5.25 µM and 2.93 µM | 10.1 µM and 9.6 µM | 21.6 µM and 22.1 µM | 11.4 µM and 10.7 µM | 12.3 µM and 12.5 µM | 14.2 µM | 16.1 µM and 15.3 µM | 14.7 µM and 13 µM | 17.5 µM and 15.4 µM | 15.3 µM and 12.9 µM | 
3 | COc1ccc(Cc2cnc(NC(=O)c3sc4ccccc4c3Cl)s2)cc1 | 13.3 µM | > 100 µM | > 100 µM |  | > 100 µM | > 100 µM | > 100 µM | > 100 µM | > 100 µM | 0.39 µM | 0.408 µM | > 100 µM | 0.383 µM | 0.365 µM |  | 0.587 µM | 1.26 µM | 0.703 µM | 0.843 µM | 0.31 µM
4 | COc1cc2cc[n+]3c4cc(OC)c(OC)cc4c(C)cc3c2cc1OC | > 100 µM | > 100 µM | > 100 µM | > 100 µM | > 100 µM |  | > 100 µM | > 100 µM | > 100 µM |  |  | > 100 µM |  |  |  |  |  |  |  | 
5 | CCOC(=O)C1=C(C)NC2SC(=O)/C(=C\c3ccccc3)N2C1c1ccccc1 (stereo not drawn) | > 100 µM | > 100 µM | > 100 µM | > 100 µM | > 100 µM | > 100 µM | > 100 µM |  | > 100 µM | > 100 µM | 67.5 µM | > 100 µM | 73.7 µM | 93.5 µM | > 100 µM | > 100 µM | > 100 µM | > 100 µM | > 100 µM | 
6 | C=C(C)[C@@H]1CCC2=C[C@@H](OC2=O)[C@@H](C(=C)C)C(=O)/C=C(/C)C(=O)C1 | 56.8 µM | 63.7 µM | 92.2 µM | 57.8 µM | > 100 µM | > 100 µM |  |  | > 100 µM | 26.3 µM | 16.1 µM | 42 µM | 24.8 µM | 29.1 µM | 22.6 µM | 70.6 µM | 30 µM |  | 42.2 µM | 
7 | CCc1c(Cl)nc(Cl)nc1Cl | 0.284 µM | 4.16 µM | 10.4 µM | 0.374 µM | 1.3 µM | 2.03 µM |  | > 100 µM | 4.85 µM |  |  | 0.44 µM |  |  |  |  |  |  |  | 
8 | CN1c2ccccc2S(=O)(=O)n2c(COc3ccc(Cl)cc3)nnc21 | > 100 µM | > 100 µM | > 100 µM | > 100 µM | > 100 µM | > 100 µM | > 100 µM |  | > 100 µM |  |  | > 100 µM |  |  |  |  |  |  |  | 
9 | O=C(O)C#CCO | > 100 µM | > 100 µM | > 100 µM | > 100 µM | > 100 µM | > 100 µM | > 100 µM |  | > 100 µM |  |  | > 100 µM |  |  |  |  |  |  |  | 
10 | C/C(=N/NC(=O)C(N)=O)C(CC(C(=O)Nc1ccccc1C)/C(C)=N\NC(=O)C(N)=O)C(=O)Nc1ccccc1C (stereo not drawn) | > 100 µM | > 100 µM | > 100 µM | > 100 µM | > 100 µM | > 100 µM | > 100 µM |  | > 100 µM |  |  |  |  |  |  |  |  |  |  | 
11 | COC(=O)C1CCC(Nc2cccc(C(F)(F)F)c2)=N1 (stereo not drawn) | > 100 µM | > 100 µM | > 100 µM | > 100 µM | > 100 µM | > 100 µM | > 100 µM |  | > 100 µM |  |  | > 100 µM |  |  |  |  |  |  |  | 
12 | NCC1OC(OC2C(CO)OC(OC3C(O)C(N)CC(N)C3OC3OC(CO)C(O)C(O)C3N)C2O)C(N)C(O)C1O (stereo not drawn) | > 50 µg/mL | > 50 µg/mL | > 50 µg/mL | > 50 µg/mL | > 50 µg/mL | > 50 µg/mL | > 50 µg/mL |  | > 50 µg/mL | > 50 µg/mL | > 50 µg/mL | > 50 µg/mL | > 50 µg/mL | > 50 µg/mL | > 50 µg/mL | > 50 µg/mL | > 50 µg/mL | > 50 µg/mL | > 50 µg/mL | 
13 | N#CN1CCC[C@H]1C(=O)N1CCc2c(-c3[nH]nc4ncccc34)cccc21 |  | 10.1 µM | 11.1 µM | < 0.01 µM | 17.4 µM | 13.2 µM | 18.2 µM | 20 µM | 5.11 µM |  | < 0.01 µM | 8.14 µM | < 0.01 µM | 0.105 µM | < 0.01 µM | < 0.0156 µM | < 0.01 µM | < 0.01 µM | 0.0431 µM | < 0.01 µM
14 | CCN(CC)CCNC(=O)c1cccc2cc3ccccc3nc12 | 20.2 µM | 36.6 µM | 11.6 µM | 61.5 µM | 27.7 µM | 28.2 µM | 19.9 µM |  | 22.1 µM |  |  | 21.8 µM |  |  |  |  |  |  |  | 
15 | O=C(O)CCC1(Br)CCCCC(Br)C1=O (stereo not drawn) | > 100 µM |  | > 100 µM | > 100 µM | > 100 µM | > 100 µM | > 100 µM |  |  |  |  | > 100 µM |  |  |  |  |  |  |  | 
16 | COc1cc(C2CC(c3cc(C)ccc3C)=NN2c2ccc(S(=O)(=O)NC(=O)NCc3ccccc3)cc2)cc(OC)c1OC (stereo not drawn) |  | 17.6 µM | 6.48 µM | 5.4 µM | 26.1 µM | 34.8 µM | 6.25 µM |  | 15.6 µM |  | 3.21 µM | > 100 µM | 3.44 µM | 2.54 µM | 2.42 µM | 4.19 µM | 4.9 µM | 2.81 µM | 3.56 µM | 
17 | O=C(c1cccs1)c1c(C(F)(F)F)n([O-])c2ccc(F)cc2[n+]1=O | 1.62 µM | 0.35 µM | 3.84 µM | 2.35 µM | 3.21 µM |  | 2.37 µM | 0.558 µM | 2.58 µM | 0.456 µM | 0.922 µM | 2.41 µM | 0.163 µM | 1.38 µM | 0.793 µM | 1.76 µM |  | 0.841 µM | 1.3 µM | 0.148 µM
